# Values quoted from earlier work, collected in patent publication US20250278807A1, “MODERN MONETARY THEORY AND TRANSLATIONAL SCIENTIFIC RESEARCH” (priority 2025, published 2025).
# Like-named read-outs stand apart in the source and are kept apart here.
# How the values were obtained:
# [1] = in vivo
# thoracic atheroma = settings: administered intraperitoneally, cholesterol-fed rabbits
# [2] = target: T1, beta amyloid peptide (1-40) aggregates (Homo sapiens, UniProt P05067); settings: in vitro, aggregates formed with calcium ions; loss of Thioflavin T fluorescence
# T1 construct: beta amyloid peptide (1-40)
# T1 sequence (P05067 672-711 limits assumed): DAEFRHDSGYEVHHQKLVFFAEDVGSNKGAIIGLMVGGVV
# [3] = tested on: chronic lumbar radicular pain; settings: phase II trials, versus placebo
# [4] = tested on: wide variety of cancer cells; settings: in vitro
# [5] = tested on: wide variety of cancer cells; settings: in vivo
# [6] = tested on: other malignant cell cultures; settings: in vitro
# [7] = in vivo; remark: listed apart in the source
compound,measurement,setting,value
O=[14CH][C@H](O)[C@H](O)[C@H](O)CO [D-ribose-1-C^14],excretion after infusion,[1],excreted unchanged in the urine
Choline citrate,effect on thoracic atheroma,thoracic atheroma,decreased thoracic atheroma
O=C(O)CC(O)(CC(=O)O)C(=O)O [citrate],dissolution of beta amyloid aggregates,[2],can be dissolved
O=C([O-])CC(O)(CC(=O)[O-])C(=O)[O-].[Na+].[Na+].[Na+] [sodium citrate],effect on thoracic atheroma,thoracic atheroma,decreased thoracic atheroma
COc1c([C@H]2[C@H](C(=O)Nc3ccnc(C(N)=O)c3)O[C@@](C)(C(F)(F)F)[C@H]2C)ccc(F)c1F [suzetrigine],efficacy in chronic lumbar radicular pain,[3],no better efficacy than placebo
"O=CC[C@@H](O)[C@H](O)[C@H](O)CO [2DG, 2-Deoxy-D-Glucose]",inhibition of growth of cancer cells,[4],inhibit growth
same,inhibition of growth of cancer cells,[5],inhibit growth
"C[C@@H](O)C(=O)O[C@H](C)C(=O)O [DLAD, D-Lactic Acid Dimer]",inhibition of growth of cancer cells,[4],inhibit growth
same,inhibition of melanoma cell proliferation,melanoma cell; compared to L-lactic acid dimer (P<0.0001),conclusively shown
same,efficacy at pH 7,melanoma cell; pH 7,lost efficacy
same,inhibition of growth of other malignant cell cultures,[6],inhibit growth
same,inhibition of growth of cancer cells,[5],inhibit growth
same,inhibition of growth of melanoma tumors,melanoma tumors; in vivo,inhibit growth
same,tumoricidal activity,melanoma tumors; intralesional application,dose response tumoricidal activity
CCN(CC)CCOC(=O)c1ccc(N)cc1 [Procaine],oral bioavailability,[7],orally bioavailable
NCCCC[C@H](N)C(=O)O [L-lysine],effect on absorption of glucose,blood glucose; concomitant administration of glucose with L-lysine,decrease the absorption of glucose
same,oral bioavailability,"blood glucose; in vivo, po",well established
same,effect on blood glucose,blood glucose; oral administration,lower blood glucose
